According to a melting point compilation (Tetko et al.; mined from patent text by program, amines drawn as free bases though some values may be those of a salt):

SMILES	melting point [°C]
CCOC(=O)C(C)(C)Oc1ccc(C#CC(=O)c2ccc(Cl)cc2)cc1	68 to 70
Nc1c(O)c2ccccc2oc1=O	400
CNc1nc(N)nc2c1ncn2C1C=CC(CO)C1 (stereo not given)	221 to 223
Nn1c(C(F)(F)F)cc(=O)n(-c2cc([N+](=O)[O-])c(Br)cc2F)c1=O	165
COc1ccc2c(c1)CCN1C[C@H]3CCCN[C@H]3C[C@@H]21	125 to 127
Cc1c[nH]c2cccc(C3CCCNC3)c12 (stereo not given)	150
C[C@H](Nc1ncnc2[nH]cnc12)c1oc2ccc(F)cc2c(=O)c1-c1ccccc1	196 to 198
CN1CCN(C(=O)/C=C/CSc2nc(N)cc(Cl)n2)CC1	155 to 156
CN1Cc2c(-c3noc(CN4CCCC(C)(C)C4)n3)ncn2-c2ccccc2C1=O	167 to 168
Cc1[nH]c(=O)[nH]c1C(=O)c1ccc(N2CCCCC2)cc1	260 to 263
CCCCCCCN(CCN1CCN(CCSc2nc3cccc(C(=O)OC)c3o2)CC1)C(=O)Nc1c(C(C)C)cccc1C(C)C	125 to 126
Cc1nnc2n1-c1sccc1C(c1ccccc1Cl)=NC2	221 to 223
CN1C2CCC1CC(O)(c1ccc(F)cc1)C2 (stereo not given)	169
Cc1ccc2cccc(OCc3c(Cl)ccc(C(=O)NCCN4C(=O)c5ccccc5C4=O)c3Cl)c2n1	210 to 212
Cc1c(C)c2c(c(C)c1OCc1ccccc1)CC[C@@](C)(CC(=O)CC(=O)OCc1ccccc1)O2	72.5 to 74
CC(C)CCS(=O)(=O)NC(=O)/C=C/c1cc(OC2CCOCC2)nn1Cc1ccc(C(F)(F)F)cc1Cl	150 to 152
CC1CCN(C2C3=CC(OC3=O)C3C(CC4(C)OC4C2OC(=O)c2ccccc2)OC(=O)C3C)CC1 (stereo not given)	234
CCOP(=O)(CC(=O)Nc1c(C(C)C)cccc1C(C)C)NCC(c1ccccc1)c1ccccc1 (stereo not given)	172 to 176
O=[N+]([O-])c1cccc(C(F)(F)F)c1NCC(O)CO (stereo not given)	117
CC(C)CN1CCS(=O)(=O)c2sc(S(N)(=O)=O)cc2C1	149 to 151
COc1c(Cc2ccccc2)ccc2ccccc12	56 to 59
CCCCCCCCCCCCCCCCCC(=O)OC1CC(C)(C)N(OC(=O)CCCCCCCCCCCCCCCCC)C(C)(C)C1	62 to 65

SMILES	melting point [°C]
COc1cc(/C=C/c2cc(/C=C/c3ccc4cc[nH]c4c3)n[nH]2)cc(OCc2ccccn2)c1	88 to 93
CCOC(=O)C(=CN(C)C)C(=O)c1cc2cc(F)c(F)cc2nc1Cl	140
O=C(O)c1cccc2c1[nH]c1c(Cl)c(Cl)ccc12	290
COc1ccc(S(=O)(=O)Nc2c(C)c(C)c3c(c2C)C(c2ccc(C(C)C)cc2)C(C)(C)O3)cc1 (stereo not given)	206 to 208
O=C(O)C1Cc2ccccc2N1S(=O)(=O)c1ccc(-c2ccc(F)cc2F)cc1 (stereo not given)	88 to 92
NC(=O)c1ncn2c1[C@@H]1CCCN1C(=O)c1c-2ccc(F)c1F	221 to 224
CCC(=NOCc1ccc(Cl)cc1)c1cc(Cl)ccc1N(C(C)=O)S(=O)(=O)C(F)(F)F	64 to 66
CCC(=CC(COC(N)=O)=NO)C(C)[N+](=O)[O-] (stereo not given)	69 to 72
CN1CCc2cc(O)c(O)c(Sc3ccc([N+](=O)[O-])cc3)c2CC1	125 to 127
CCOC(=O)c1c(N=Cc2ccc([N+](=O)[O-])s2)sc(N=Cc2ccc([N+](=O)[O-])s2)c1C(=O)OCC	255 to 257
Fc1ccc(/C=C/c2nc(COc3ccc(CCCCn4ccnn4)cc3)co2)cc1	124 to 125
O=C1C(=O)c2ccccc2C2=C1SCC1(CCN(C(=O)c3nc4ccccc4[nH]3)CC1)O2	266 to 268
N#Cc1c(CCl)[nH]c(=O)[nH]c1=O	229
CCN(Cc1ccc(Cl)nc1)C(=C[N+](=O)[O-])N(C)C(=O)OCOC(=O)c1ccccc1	62 to 63
CCOC(=O)c1cccc2c(=O)cc(-c3cccc(OCc4ccc5ccccc5n4)c3)oc12	> 300
CSC(SC)=C1C(=O)CCCC1=O	66 to 67
COc1cc(C=O)ccc1OCC1CO1 (stereo not given)	56 to 58
CCOC(=O)C1(F)C(=O)NC(=O)NC1N1CCCCC1 (stereo not given)	149 to 150
CC(C)(C)CC(C)(C)n1scc(Br)c1=O	133 to 142
CC(C)OC(=O)C(C(=O)OC(C)C)=C1SC2C(S1)N(C)CCN2C (stereo not given)	93.6
C1=C(c2ccc3c(c2)OCCO3)CCC(N2CCN(Cc3ccccc3)CC2)C1 (stereo not given)	132 to 133

The remaining lines, values ahead:

melting point [°C]	SMILES
297 to 300	Cc1nc(NC(=O)NC(C)(C)C)ccc1-c1ccncc1
88 to 90	COc1ccc(N(C)c2nccc(-c3cccnc3)n2)cc1
236 to 238	NC(=S)Nc1ccc(C2=NNC(=O)Cc3cc4c(cc32)OCO4)cc1
187 to 190	N#Cc1c(OCc2ccc(F)cc2F)ccn(Cc2cccc(F)c2)c1=O
132	COc1ccccc1CNc1ccc2cc(Nc3cc(C)on3)ccc2n1
111 to 113	CCNS(=O)(=O)c1cccc(OCc2nc3ccccc3s2)c1
79 to 81	COC(=O)c1cc(C(O)CN(C)C)ccc1OCc1ccccc1 (stereo not given)
112 to 114	O=C(O)[C@H]1C[C@H](NCc2ccccc2)c2c(Cl)cc(Cl)cc2N1 (relative stereo)
123 to 124	Cc1sc(-c2ccccc2)nc1COc1cc(COc2ncccc2C=O)on1
208	CCCNc1ccc(C(=O)O)cc1[N+](=O)[O-]
268 to 269	O=C1OC(=O)c2cc3cccnc3c3cc([N+](=O)[O-])cc1c23
95 to 96	CCOC(=O)c1cnn(-c2ccc(OCC(C)(C)C(=O)OC)c(C#N)c2)c1
117 to 118	CC(C(=O)O)c1ccc2c(c1)C(=O)CC(C(C)(C)C)O2 (stereo not given)
227 to 230	Cc1cccc2cc3c(=O)n(CC(F)(F)F)cc(C(=O)NCCN(C)C)c3nc12
174 to 175	CS(=O)(=O)Nc1ccc([N+](=O)[O-])cc1C=C1CCCCC1
75 to 85	CC(C)(C)OC(=O)N1CCN(C[C@H](O)Cn2c3ccccc3c3cc(Br)ccc32)CC1
240 to 245	CCNC(=O)NS(=O)(=O)c1ccccc1-c1ccc(Cn2c(CC)nc3c(C)ccnc32)cc1
181 to 182	CCCOc1ccccc1-c1nc2nc(NCC)ncc2c(=O)[nH]1
258 to 260	CC(=O)C1=Nc2cc3c(c(C)c2=C1C)N=c1ccccc1=3

melting point [°C]	SMILES
108 to 110	Cc1ccc(Oc2ccccc2NN)c(O)c1
126 to 128	Cc1ccc(C(=O)c2cnoc2C2CC2)cc1S(C)(=O)=O
138 to 141	O=C1NCc2ccc3ccccc3c21
69 to 71	CCOCCCCC(=O)c1ccc(S(C)=O)cc1 (stereo not given)
145 to 149	CC(C)C1(C)NC(c2ncccc2CO)=NC1=O (stereo not given)
168 to 169	Cc1cc(CCC(=O)OC(C)(C)C)nc(-c2nc(=O)c3ccccc3s2)c1
135 to 136	COC(=O)C(NC(=O)c1cc2cc(Cl)ccc2[nH]1)C(C)c1ccccc1 (stereo not given)
152 to 153	COc1ccc(Cl)cc1C(=O)NCc1ccc(CCC(=O)O)cc1
97 to 98	COc1cc(COc2nn(C)cc2/C=C\c2cscn2)ccc1OCc1nc(-c2ccco2)oc1C
204 to 207	Clc1ccc(-c2c[nH]nc2-c2ccncc2)cc1
107 to 108	Cn1c(=O)ccc2cc(COc3cccc(C4(C)CCOCC4)c3)ccc21
193 to 195	COc1ccc(C(=O)Nc2ccccc2)cc1NC(=S)Nc1ccc(S(N)(=O)=O)cc1
198	O=c1c(CO)cnc2c3ccccc3ccn12
258 to 260	Nc1nc(Nc2ccc(S(N)(=O)=O)cc2)sc1C(=O)c1c(F)cccc1F
196 to 197	Cc1c2cccc(-c3cccc(C(=O)NCCC#N)c3)c2nn1Cc1cccc(C(F)(F)F)c1
176 to 177	Cc1ccn(NS(=O)n2ccnc2)c(=N)c1 (stereo not given)
196 to 198	Cc1c(C(N)=NO)ncn1-c1cccc(Oc2ccccc2)c1
160 to 161	O=C(CNC(=O)c1ccc(Cl)cc1)c1ccsc1
72	COC(=O)CSc1cccc(CN)c1

melting point [°C]	SMILES
96 to 98	CCOC(=O)c1ncc2[nH]c3cccc(Oc4ncccn4)c3c2c1COC
227 to 228	Cc1cc2c(-c3ccccc3)c(CCNC(=O)OCc3ccccc3)n(C)c(=O)c2cc1C
205	CCCC(=O)Nc1n[nH]c2cc(-c3cccnc3)ccc12
> 300	Cc1nc(N)nc(N)c1N1CCN(c2ccc(C#N)cc2)CC1
146 to 148	COC(=O)C1CC(=O)NC(Cc2ccccc2)C1=O (stereo not given)
157 to 159	Cn1c(SC(C(=O)O)c2ccccc2)nc2ccccc21 (stereo not given)
206 to 207	Cc1cc2c(Cl)ccc(-n3c(=O)cc(C(F)(F)F)n(C)c3=O)c2o1
93 to 95	CN(C)Cc1noc(-c2nn(Cc3ccccc3)c3ccccc23)n1
100	Cc1cccc(NC(=O)NCC(=O)N(c2ccccc2)C(C(=O)OC(C)(C)C)c2cccc(Cl)c2)c1 (racemic)
213 to 214	CSc1ccc(C2=NNC(=O)CC2c2ccccc2)cc1 (stereo not given)
158 to 159	CC(C)(C)OC(=O)NCCCCn1c(-c2ccccc2)nc2cnc3ccccc3c21
224 to 226	COc1ccc(NC(=O)NCc2ccc(-n3c(-c4cccnc4N)nc4cccnc43)cc2)cc1
149	CCOC(=O)n1cc(C#N)c(-c2cccc(Cl)c2F)c1
220 to 221	COc1ccn2c(C)c(CCc3ccc4nc(N)oc4c3)nc2c1
157 to 160	Cc1c(-c2ccncc2)oc2c1C(=O)OC(C)C2 (stereo not given)
174 to 176	COc1ccc(C(=O)Nc2ccccc2)cc1NCc1ccc(C(C)C)cc1
92 to 93	CC(C)c1nn(-c2ccc(C(F)(F)F)cc2)cc1COc1cccc(CC(=O)O)c1
130 to 132	COC(=O)CC(=O)Nc1ccccc1COc1ccc(C(C)=O)c(O)c1
279 to 281	CC(C)n1c(=O)nc(-c2cnc3ccccc3c2)c2cc3c(cc21)OCO3
